ChEMBL document CHEMBL1157622, “Synthesis and antiproliferative evaluation of certain indolo[3,2-c]quinoline derivatives” (Bioorg Med Chem, 2010)
pIC50: −log10 of the molar value. The source made the active and inactive calls. The rule behind the calls is not given here.

Assays:
[1] = tested on: HeLa; assay: Antiproliferative activity against human HeLa cells by MTT assay; assay type: functional, cell-based
[2] = tested on: A549; assay: Antiproliferative activity against human A549 cells by MTT assay; assay type: functional, cell-based
[3] = Antiproliferative activity against human SKHep cells by MTT assay; assay type: functional, cell-based
[4] = tested on: PC-3; assay: Antiproliferative activity against human PC3 cells by MTT assay; assay type: functional, cell-based
[5] = tested on: Detroit 551; assay: Antiproliferative activity against human Detroit 551 cells by MTT assay; assay type: cell-based
[6] = target: T1, DNA topoisomerase 1 (Homo sapiens) (UniProt P11387); assay: Inhibition of topoisomerase 1-mediated unwinding of supercoiled plasmid DNA at 10 uM
T1 sequence (whole entry): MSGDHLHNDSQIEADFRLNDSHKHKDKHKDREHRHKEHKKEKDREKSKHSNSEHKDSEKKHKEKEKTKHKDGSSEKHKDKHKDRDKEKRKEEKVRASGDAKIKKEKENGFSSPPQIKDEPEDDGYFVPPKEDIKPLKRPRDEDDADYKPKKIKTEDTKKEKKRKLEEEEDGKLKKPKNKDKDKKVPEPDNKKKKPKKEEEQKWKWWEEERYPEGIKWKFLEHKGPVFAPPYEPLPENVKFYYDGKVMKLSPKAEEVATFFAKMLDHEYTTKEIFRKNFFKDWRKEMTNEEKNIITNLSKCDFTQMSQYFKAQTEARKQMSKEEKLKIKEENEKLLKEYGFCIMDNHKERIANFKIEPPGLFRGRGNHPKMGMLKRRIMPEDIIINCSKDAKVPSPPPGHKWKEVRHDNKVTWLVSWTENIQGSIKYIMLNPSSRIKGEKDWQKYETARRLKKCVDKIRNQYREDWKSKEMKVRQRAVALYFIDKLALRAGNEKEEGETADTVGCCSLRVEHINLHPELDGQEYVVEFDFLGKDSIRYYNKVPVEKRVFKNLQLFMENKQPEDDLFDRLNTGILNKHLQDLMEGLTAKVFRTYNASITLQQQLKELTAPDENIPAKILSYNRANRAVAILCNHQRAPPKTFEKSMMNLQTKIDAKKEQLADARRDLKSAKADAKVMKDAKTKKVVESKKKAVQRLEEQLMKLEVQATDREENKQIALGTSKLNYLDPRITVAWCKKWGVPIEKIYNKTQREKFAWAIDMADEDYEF

[7] = target: T1, DNA topoisomerase 1 (Homo sapiens); assay: Inhibition of topoisomerase 1-mediated unwinding of supercoiled plasmid DNA at 0.1 to 1.0 uM
[8] = target: DNA topoisomerase 2-alpha (Homo sapiens) (UniProt P11388); assay: Inhibition of DNA topoisomerase 2-mediated unwinding of supercoiled pBR322 DNA
DNA topoisomerase 2-alpha (Homo sapiens), sequence (P11388 whole entry): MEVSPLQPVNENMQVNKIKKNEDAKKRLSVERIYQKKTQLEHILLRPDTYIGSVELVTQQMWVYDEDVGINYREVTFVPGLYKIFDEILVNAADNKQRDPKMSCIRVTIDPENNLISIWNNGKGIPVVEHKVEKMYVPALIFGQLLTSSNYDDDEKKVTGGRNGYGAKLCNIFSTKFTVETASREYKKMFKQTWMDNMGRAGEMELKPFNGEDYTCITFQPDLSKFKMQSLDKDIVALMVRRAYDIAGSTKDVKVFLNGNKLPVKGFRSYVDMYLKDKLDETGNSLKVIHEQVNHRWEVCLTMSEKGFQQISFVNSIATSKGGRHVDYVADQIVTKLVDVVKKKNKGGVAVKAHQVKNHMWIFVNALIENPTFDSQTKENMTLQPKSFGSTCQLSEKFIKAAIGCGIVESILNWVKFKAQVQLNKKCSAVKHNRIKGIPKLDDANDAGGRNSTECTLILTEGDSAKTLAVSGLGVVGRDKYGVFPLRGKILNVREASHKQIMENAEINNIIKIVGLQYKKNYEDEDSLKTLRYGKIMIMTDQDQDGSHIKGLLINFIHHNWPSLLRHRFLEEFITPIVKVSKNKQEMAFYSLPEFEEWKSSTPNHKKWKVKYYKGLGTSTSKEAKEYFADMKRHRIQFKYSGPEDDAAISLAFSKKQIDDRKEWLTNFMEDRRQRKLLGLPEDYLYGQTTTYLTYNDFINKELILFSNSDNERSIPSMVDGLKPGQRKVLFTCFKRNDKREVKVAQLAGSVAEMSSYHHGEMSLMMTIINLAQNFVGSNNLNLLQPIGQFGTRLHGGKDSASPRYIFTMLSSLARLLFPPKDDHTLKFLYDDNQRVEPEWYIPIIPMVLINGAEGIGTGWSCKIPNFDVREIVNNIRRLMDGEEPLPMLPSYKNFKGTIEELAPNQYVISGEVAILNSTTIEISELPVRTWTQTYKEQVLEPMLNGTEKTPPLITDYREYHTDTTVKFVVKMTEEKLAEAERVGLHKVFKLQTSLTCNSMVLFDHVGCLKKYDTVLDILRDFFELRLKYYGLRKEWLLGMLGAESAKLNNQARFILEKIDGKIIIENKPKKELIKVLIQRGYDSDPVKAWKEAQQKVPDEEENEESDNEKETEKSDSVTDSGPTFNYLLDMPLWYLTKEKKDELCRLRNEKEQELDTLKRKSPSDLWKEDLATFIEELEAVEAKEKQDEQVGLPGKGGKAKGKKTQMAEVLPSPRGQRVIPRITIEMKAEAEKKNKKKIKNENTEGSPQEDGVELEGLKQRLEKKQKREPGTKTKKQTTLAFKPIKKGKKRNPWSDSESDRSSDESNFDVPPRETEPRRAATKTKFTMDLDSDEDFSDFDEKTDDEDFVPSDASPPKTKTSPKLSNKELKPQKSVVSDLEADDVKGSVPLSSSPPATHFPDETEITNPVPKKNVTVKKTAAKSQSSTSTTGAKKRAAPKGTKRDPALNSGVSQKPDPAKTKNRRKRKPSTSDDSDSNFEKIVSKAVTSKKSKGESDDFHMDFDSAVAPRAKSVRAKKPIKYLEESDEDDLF

[9] = tested on: HeLa; assay: Antiproliferative activity against human HeLa cells at 0.3 to 1.0 uM after 48 hrs by MTT assay; assay type: functional
[10] = tested on: HeLa; assay: Antiproliferative activity against human HeLa cells assessed as reduction in colony number after 48 hrs by clonogenic assay; assay type: functional, cell-based
[11] = tested on: HeLa; assay: Antiproliferative activity against human HeLa cells assessed as reduction in colony size after 48 hrs by clonogenic assay; assay type: functional, cell-based
[12] = tested on: PC-3; assay: Cell cycle arrest in human PC3 cells by accumulation at subG1 phase at 0.1 uM after 48 hrs by propidium iodide staining-based flow cytometry (Rvb=0.8%); assay type: functional
[13] = tested on: PC-3; assay: Cell cycle arrest in human PC3 cells by accumulation at subG1 phase at 0.3 uM after 48 hrs by propidium iodide staining-based flow cytometry (Rvb=0.8%); assay type: functional
[14] = tested on: PC-3; assay: Cell cycle arrest in human PC3 cells by accumulation at G1 phase at 0.1 uM after 48 hrs by propidium iodide staining-based flow cytometry (Rvb=68.4%); assay type: functional
[15] = tested on: PC-3; assay: Cell cycle arrest in human PC3 cells by accumulation at G1 phase at 0.3 uM after 48 hrs by propidium iodide staining-based flow cytometry (Rvb=68.4%); assay type: functional
[16] = tested on: PC-3; assay: Cell cycle arrest in human PC3 cells by accumulation at S phase at 0.1 uM after 48 hrs by propidium iodide staining-based flow cytometry (Rvb=11.2%); assay type: functional
[17] = tested on: PC-3; assay: Cell cycle arrest in human PC3 cells by accumulation at S phase at 0.3 uM after 48 hrs by propidium iodide staining-based flow cytometry (Rvb=11.2%); assay type: functional
[18] = tested on: PC-3; assay: Cell cycle arrest in human PC3 cells by accumulation at G2/M phase at 0.1 uM after 48 hrs by propidium iodide staining-based flow cytometry (Rvb=19.4%); assay type: functional
[19] = tested on: PC-3; assay: Cell cycle arrest in human PC3 cells by accumulation at G2/M phase at 0.3 uM after 48 hrs by propidium iodide staining-based flow cytometry (Rvb=19.4%); assay type: functional
[20] = tested on: PC-3; assay: Induction of apoptosis in human PC3 cells assessed as PARP cleavage at 0.1 uM after 48 hrs by Western blot; assay type: functional, cell-based
[21] = tested on: PC-3; assay: Induction of apoptosis in human PC3 cells assessed as caspase 3 activation at 0.1 uM after 48 hrs by Western blot; assay type: functional, cell-based
[22] = tested on: PC-3; assay: Induction of apoptosis in human PC3 cells assessed as gammaH2AX phosphorylation mediated DNA damage at 0.1 uM after 48 hrs by Western blot; assay type: functional, cell-based

SMILES	pIC50 [1]	pIC50 [2]	pIC50 [3]	pIC50 [4]	pIC50 [5]	further results
OCCNCCNc1nc2ccccc2c2[nH]c3ccccc3c12	6.13	6.15	6.14	5.24	5.76	–
NCCNCCNc1nc2ccccc2c2[nH]c3ccccc3c12	6.19	5.99	5.66	5.10	5.41	–
CN(C)CCNc1nc2ccccc2c2[nH]c3ccccc3c12	6.21	6.08	5.80	5.24	5.66	–
Oc1ccccc1Nc1nc2ccccc2c2[nH]c3ccccc3c12	5.33	4.75	4.66	< 4.52	–	–
CN(C)CCCNc1nc2ccccc2c2[nH]c3ccccc3c12	6.07	6.30	6.10	5.44	5.66	–
NCCCCCCCNc1nc2ccccc2c2[nH]c3ccccc3c12	5.57	5.65	5.60	5.20	–	–
Fc1ccc2nc(NCCN3CCOCC3)c3c4ccccc4[nH]c3c2c1	5.36	5.17	5.28	5.16	–	–
c1ccc(Nc2nc3ccccc3c3[nH]c4ccccc4c23)cc1	< 4.52	< 4.52	< 4.52	< 4.52	–	–
Fc1ccc2nc(NCCN3CCNCC3)c3c4ccccc4[nH]c3c2c1	5.27	5.21	5.57	4.91	–	–
c1ccc2c(c1)nc(NCCN1CCOCC1)c1c3ccccc3[nH]c21	6.06	5.95	5.89	5.55	–	–
Oc1ccc(CCNc2nc3ccccc3c3[nH]c4ccccc4c23)cc1O	5.42	4.99	5.18	4.82	–	–
Oc1ccc(Nc2nc3ccccc3c3[nH]c4ccccc4c23)cc1	5.81	5.41	5.24	5.27	4.59	–
Oc1cccc(Nc2nc3ccccc3c3[nH]c4ccccc4c23)c1	4.99	4.99	5.14	4.74	4.37	–
Cl.c1ccc2c(c1)nc(NCCCNCCCNc1nc3ccccc3c3[nH]c4ccccc4c13)c1c3ccccc3[nH]c21	7.17	6.96	7.05	7.10	5.70	inhibition [6]: Active; inhibition [7]: inactive; inhibition [8]: Dose-dependent effect; inhibition (INH) [9]: 95%; Activity [10]: Dose-dependent effect; Activity [11]: Dose-dependent effect; Activity [12]: 30.6%; Activity [13]: 72.6%; Activity [14]: 40.3%; Activity [15]: 15.8%; Activity [16]: 4.5%; Activity [17]: 2.7%; Activity [18]: 24.1%; Activity [19]: 8.7%; Activity [20]: Active; Activity [21]: Active; Activity [22]: Active
Oc1ccc(CCNc2nc3ccc(F)cc3c3[nH]c4ccccc4c23)cc1	5.88	5.04	5.11	5.20	–	–
NCCCCCCNc1nc2ccccc2c2[nH]c3ccccc3c12	7.14	7.08	5.60	5.59	–	–
c1ccc2c(c1)nc(NCCN1CCNCC1)c1c3ccccc3[nH]c21	6.17	6.28	6.42	5.75	5.59	–
c1ccc2c(c1)nc(NCCCCCCCNc1nc3ccccc3c3[nH]c4ccccc4c13)c1c3ccccc3[nH]c21	5.92	5.92	5.79	5.18	–	–
OCCNCCNc1nc2ccc(F)cc2c2[nH]c3ccccc3c12	5.83	6.03	5.88	5.19	–	–
Oc1ccc(CCNc2nc3ccccc3c3[nH]c4ccccc4c23)cc1	6.23	5.24	5.28	5.05	5.37	–
c1ccc2c(c1)nc(NCCCCCCNc1nc3ccccc3c3[nH]c4ccccc4c13)c1c3ccccc3[nH]c21	6.51	6.30	5.83	6.23	–	–
OCCNc1nc2ccccc2c2[nH]c3ccccc3c12	6.21	6.00	5.99	5.25	5.50	–
COc1ccc(CCNc2nc3ccccc3c3[nH]c4ccccc4c23)cc1OC	6.28	5.27	5.23	5.05	4.71	–
CN(CCCNc1nc2ccccc2c2[nH]c3ccccc3c12)CCCNc1nc2ccccc2c2[nH]c3ccccc3c12	6.05	6.37	6.55	5.70	5.67	–
COc1ccc(Nc2nc3ccccc3c3[nH]c4ccccc4c23)cc1	4.94	4.96	5.11	4.68	–	–
COc1cccc2c1C(=O)c1c(O)c3c(c(O)c1C2=O)C[C@@](O)(C(=O)CO)C[C@@H]3O[C@H]1C[C@H](N)[C@H](O)[C@H](C)O1 [DOXORUBICIN]	6.48	–	–	5.75	–	–
